23 compounds from patent US20250059172A1, “INDAZOLE COMPOUND AND PHARMACEUTICAL” (NIPPON SHINYAKU CO., LTD., priority 2021, published 2025) can be followed below.

Structures can show the parent of a compound that is named as a salt.

The target in one assay is human mPGES-1 (Homo sapiens (Human), UniProt O14684). The experiment in a line: mPGES-1 inhibitory activity test. In kind it is biochemical. As to conditions: microsomes of CHO-K1 cells expressing human mPGES-1, PGH2 1 μM, PGE2 by HTRF; read-out: mPGES-1 inhibition (IC50 nM). The method, then:
mPGES-1 microsomal specimens were prepared by transiently transfecting CHO-K1 cells (DS Pharma Biomedical Co. Ltd) with a plasmid encoding human mPGES-1 cDNA using FuGENE 6 Transfection Reagent (Promega). The prepared mPGES-1 microsome specimens were diluted in potassium phosphate buffer of pH 7.4 comprising 2.5 mM reduced glutathione (Sigma-Aldrich), DMSO solution of a test compound or DMSO was added to a final concentration of 1% of DMSO, and then incubated at 4° C. for 20 minutes. The enzymatic reaction was then initiated by adding a solution of PGH2 (Cayman chemical) substrate of a final concentration 1 μM and incubated at 4° C. for 60 seconds. The reaction was terminated by adding a solution of ferric chloride (STREM CHEMICALS) and citric acid (Wako Pure Chemical Industries) salt to a final concentration of 5 mg/mL and 250 mM, respectively. The formed PGE2 was quantified using the HTRF kit (Cisbio International). Solutions without the test compound were used as positive controls, and solutions without the test compound and microsomal specimens were used as negative controls. 100% activity was defined as production of PGE2 in the positive control minus that in the negative control. The percentage inhibition of production of PGE2 at final concentrations of 10 nM and 100 nM of the test compound was then calculated, or IC50 values were determined using standard methods.
On the technique in general: Time-resolved FRET reads energy transfer from a long-lived donor to a nearby acceptor.

A further assay concerns human A549 cells. The experiment in a line: Inhibition test of PGE2 production using human A549 cells. In kind it is cell-based. As to conditions: IL-1β stimulated A549 cells, 24 h, PGE2 by HTRF, read-out: A549 cell inhibition of PGE2 production IC50. The method, then:
100 μL of RPMI medium (Sigma) comprising 10% FBS and human A549 cells was seeded in a 96-well plate to […] cells per well, and incubated overnight. The medium was then removed and washed with phosphate-buffered saline, and added to a DMSO solution of the test compound or RPMI medium comprising 3% FBS with DMSO to a final concentration of 0.1% DMSO. After incubation for 60 minutes, IL-1P (5 ng/well, BioLegend) was added to the solution. After incubation at 37° C. for 24 h, PGE2 in the medium was quantified using the HTRF kit (Cisbio International) and PGF2a was also quantified using the EIA kit (Cayman chemical). Solutions without the test compound were used as positive controls, and solutions without the test compound and IL-1β were used as negative controls. 100% activity was defined as production of PGE2 and PGF2a in the positive control minus those in the negative control. IC50 values were then determined using standard methods.

Chain of human mPGES-1 (O14684 whole entry): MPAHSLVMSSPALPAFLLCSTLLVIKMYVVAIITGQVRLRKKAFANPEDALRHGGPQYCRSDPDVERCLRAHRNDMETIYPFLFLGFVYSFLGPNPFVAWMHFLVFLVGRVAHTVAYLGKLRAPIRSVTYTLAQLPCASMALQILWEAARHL

Usually IC50 stands for the midpoint of a concentration-inhibition curve. `O=C(NCc1ccc(Cl)c(C(=O)Nc2cccc3c2cnn3-c2ccc(C(F)(F)F)cc2)c1)c1ccccc1` [Example 22, 2-Chloro-5-{[(phenylcarbonyl)amino]methyl}-N-{1-[4-(trifluoromethyl)phenyl]-1H-indazol-4-yl}benzamide]: the IC50 on human mPGES-1 turned out to be 3.3 nM; in the assay on human A549 cells, 12.8 nM.
The like results for `O=C(Nc1cccc2c1cnn2-c1ccc(C(F)(F)F)cc1)c1cc(CNS(=O)(=O)C2CC2)ccc1Cl` [Example 23, 2-Chloro-5-{[(cyclopropylsulfonyl)amino]methyl}-N-{1-[4-(trifluoromethyl)phenyl]-1H-indazol-4-yl}benzamide] were, in that order, 5.2 nM and 1.5 nM.
On to `CN(C)CC(=O)NCc1ccc(Cl)c(C(=O)Nc2cccc3c2cnn3-c2ccc(C(F)(F)F)cc2)c1` [Example 24, 2-Chloro-5-{[(N,N-dimethylglycyl)amino]methyl}-N-{1-[4-(trifluoromethyl)phenyl]-1H-indazol-4-yl}benzamide hydrochloride], for which the half-maximal inhibitory concentration (IC50) on human mPGES-1 came to 57.1 nM; in the assay on human A549 cells it was 46.4 nM.
In the case of `N#CC1(C(=O)NCc2ccc(Cl)c(C(=O)Nc3cccc4c3cnn4-c3ccc(C(F)(F)F)cc3)c2)CC1` [Example 25, 2-Chloro-5-({[(1-cyanocyclopropyl)carbonyl]amino}methyl)-N-{1-[4-(trifluoromethyl)phenyl]-1H-indazol-4-yl}benzamide], the IC50 was determined as 3.9 nM on human mPGES-1 and 8.6 nM in the assay with human A549 cells.
For `O=C(Nc1cccc2c1cnn2-c1ccc(C(F)(F)F)cc1)c1cc(CNC(=O)C2(C(F)(F)F)CC2)ccc1Cl` [Example 26, 2-Chloro-5-[({[1-(trifluoromethyl)cyclopropyl]carbonyl}amino)methyl]-N-{1-[4-(trifluoromethyl)phenyl]-1H-indazol-4-yl}benzamide], the figures for the IC50 on human mPGES-1 and in the assay with human A549 cells were 1.6 nM and 2.3 nM, respectively.
For `O=C(Nc1cccc2c1cnn2-c1ccc(C(F)(F)F)cc1)c1cc(CNC(=O)C2(O)CC2)ccc1Cl` [Example 27], the IC50 on human mPGES-1 worked out at 10 nM; in the assay on human A549 cells, 4.4 nM.
Take `CC(C)(CO)C(=O)NCc1ccc(Cl)c(C(=O)Nc2cccc3c2cnn3-c2ccc(C(F)(F)F)cc2)c1` [Example 28, 2-Chloro-5-{[(3-hydroxy-2,2-dimethylpropanoyl)amino]methyl}-N-{1-[4-(trifluoromethyl)phenyl]-1H-indazol-4-yl}benzamide]: the IC50 on human mPGES-1 amounted to 1.9 nM; in the assay with human A549 cells, 5.8 nM.
The like results for `O=C(Nc1cccc2c1cnn2-c1ccc(C(F)(F)F)cc1)c1cc(CNC(=O)C2CCC2)ccc1Cl` [Example 29, 2-Chloro-5-{[(cyclobutylcarbonyl)amino]methyl}-N-{1-[4-(trifluoromethyl)phenyl]-1H-indazol-4-yl}benzamide] were, in that order, 4.5 nM and 6.7 nM.
The like results for `O=C(Nc1cccc2c1cnn2-c1ccc(C(F)(F)F)cc1)c1cc(CNC(=O)C2CCCC2)ccc1Cl` [Example 30, 2-Chloro-5-{[(cyclopentylcarbonyl)amino]methyl}-N-{1-[4-(trifluoromethyl)phenyl]-1H-indazol-4-yl}benzamide] were, in that order, 5.5 nM and 2.6 nM.
`O=C(Nc1cccc2c1cnn2-c1ccc(C(F)(F)F)cc1)c1cc(CNC(=O)C2CCCCC2)ccc1Cl` [Example 31, 2-Chloro-5-{[(cyclohexylcarbonyl)amino]methyl}-N-{1-[4-(trifluoromethyl)phenyl]-1H-indazol-4-yl}benzamide]: the IC50 was 1.6 nM at human mPGES-1 and 5.5 nM in the assay on human A549 cells.
The like results for `O=C(Nc1cccc2c1cnn2-c1ccc(C(F)(F)F)cc1)c1cc(CNC(=O)C23CC4CC(CC(C4)C2)C3)ccc1Cl` [Example 32, N-[4-chloro-3-({1-[4-(trifluoromethyl)phenyl]-1H-indazol-4-yl}carbamoyl)benzyl]tricyclo[3.3.1.1^3,]decane-1-carboxamide] were, in that order, 23 nM and 12.1 nM.
The like results for `O=C(Nc1cccc2c1cnn2-c1ccc(C(F)(F)F)cc1)c1cc(CNC(=O)C2CCCO2)ccc1Cl` (stereo not shown) [Example 33, N-[4-chloro-3-({1-[4-(trifluoromethyl)phenyl]-1H-indazol-4-yl}carbamoyl)benzyl]-tetrahydrofuran-2-carboxamide] were, in that order, 18 nM and 41.4 nM.
In the same order, the values of `O=C(Nc1cccc2c1cnn2-c1ccc(C(F)(F)F)cc1)c1cc(CNC(=O)C2CCOC2)ccc1Cl` (stereo not shown) [Example 34, N-[4-chloro-3-({1-[4-(trifluoromethyl)phenyl]-1H-indazol-4-yl}carbamoyl)benzyl]-tetrahydrofuran-3-carboxamide] are 31 nM and 20.7 nM.
For the compound `CN(C)CCC(=O)NCc1ccc(Cl)c(C(=O)Nc2cccc3c2cnn3-c2ccc(C(F)(F)F)cc2)c1` [Example 35, 2-Chloro-5-{[(N,N-dimethyl-p-alanyl)amino]methyl}-N-{1-[4-(trifluoromethyl)phenyl]-1H-indazol-4-yl}benzamide hydrochloride], the figures for the 50% inhibitory concentration (IC50) at human mPGES-1 and in the assay on human A549 cells were 116 nM and 933 nM, respectively.
The like results for `CC(C)(C)OC(=O)N1CCC(C(=O)NCc2ccc(Cl)c(C(=O)Nc3cccc4c3cnn4-c3ccc(C(F)(F)F)cc3)c2)CC1` [Example 36, tert-Butyl 4-{[4-chloro-3-({1-[4-(trifluoromethyl)phenyl]-1H-indazol-4-yl}carbamoyl)benzyl]carbamoyl}piperidine-1-carboxylate] were, in that order, 1.4 nM and 1.7 nM.
In the same order, the values of `O=C(CC(F)(F)F)NCc1ccc(Cl)c(C(=O)Nc2cccc3c2cnn3-c2ccc(C(F)(F)F)cc2)c1` [Example 37, 2-Chloro-N-{1-[4-(trifluoromethyl)phenyl]-1H-indazol-4-yl}-5-{[(3,3,3-trifluoropropanoyl)amino]methyl}benzamide] are 8.9 nM and 2.5 nM.
In the same order, the values of `O=C(CC1CC1)NCc1ccc(Cl)c(C(=O)Nc2cccc3c2cnn3-c2ccc(C(F)(F)F)cc2)c1` [Example 38, 2-Chloro-5-{[(cyclopropylacetyl)amino]methyl}-N-{1-[4-(trifluoromethyl)phenyl]-1H-indazol-4-yl}benzamide] are 5.7 nM and 7.5 nM.
Regarding `O=C(Nc1cccc2c1cnn2-c1ccc(C(F)(F)F)cc1)c1cc(CNC(=O)[C@H]2CC[C@H](O)CC2)ccc1Cl` [Example 39, 2-Chloro-5-({[trans-(4-hydroxycyclohexyl)carbonyl]amino}methyl)-N-{1-[4-(trifluoromethyl)phenyl]-1H-indazol-4-yl}benzamide], the values for the half-inhibitory concentration (IC50) on human mPGES-1 and in the assay on human A549 cells were 7.5 nM and 5.1 nM, respectively.
The like results for `O=C(Nc1cccc2c1cnn2-c1ccc(C(F)(F)F)cc1)c1cc(CNC(=O)[C@H]2CC[C@@H](O)CC2)ccc1Cl` [Example 40, 2-Chloro-5-({[cis-(4-hydroxycyclohexyl)carbonyl]amino}methyl)-N-{1-[4-(trifluoromethyl)phenyl]-1H-indazol-4-yl}benzamide] were, in that order, 19.1 nM and 60.2 nM.
In the same order, the values of `CCC(O)(CC)C(=O)NCc1ccc(Cl)c(C(=O)Nc2cccc3c2cnn3-c2ccc(C(F)(F)F)cc2)c1` [Example 41, 2-Chloro-5-{[(2-ethyl-2-hydroxybutanoyl)amino]methyl}-N-{1-[4-(trifluoromethyl)phenyl]-1H-indazol-4-yl}benzamide] are 1 nM and 13.7 nM.
Consider `CCCC(=O)NCc1ccc(Cl)c(C(=O)Nc2cccc3c2cnn3-c2ccc(C(F)(F)F)cc2)c1` [Example 43, 5-[(Butanoylamino)methyl]-2-chloro-N-{1-[4-(trifluoromethyl)phenyl]-1H-indazol-4-yl}benzamide], for which the IC50 was found to be 2.3 nM at human mPGES-1 and 13.5 nM in the assay with human A549 cells.
The like results for `O=C(Cc1ccccc1)NCc1ccc(Cl)c(C(=O)Nc2cccc3c2cnn3-c2ccc(C(F)(F)F)cc2)c1` [Example 44, 2-Chloro-5-{[(phenylacetyl)amino]methyl}-N-{1-[4-(trifluoromethyl)phenyl]-1H-indazol-4-yl}benzamide] were, in that order, 7.2 nM and 151 nM.
The like results for `O=C(NCc1ccc(Cl)c(C(=O)Nc2cccc3c2cnn3-c2ccc(C(F)(F)F)cc2)c1)c1ccco1` [Example 45, N-[4-chloro-3-({1-[4-(trifluoromethyl)phenyl]-1H-indazol-4-yl}carbamoyl)benzyl]furan-2-carboxamide] were, in that order, 1.2 nM and 37.6 nM.
